Assays:
Format in all cases: in vivo
[1] = tested on: Abutilon theophrasti (ABUTH); assay: Pre-emergence herbicidal action against ABUTH; conditions: 100% = plants have died
Method in brief: (§1)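 Pre-emergence soil-surface spray, WP/EC formulation, 0.5% additive, 600 l/ha water, rates of 320 g/ha or lower. Greenhouse, ~3 wk. Visual score, % of untreated control (100% = plants dead, 0% = like control).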

Lolium rigidum (LOLRI) [2] = assay: Pre-emergence herbicidal action against LOLRI
Method in brief: as §1

[3] = tested on: Matricaria inodora (MATIN); assay: Pre-emergence herbicidal action against MATIN
Method in brief: as §1

Setaria viridis (SETVI) [4] = assay: Pre-emergence herbicidal action against SETVI
Method in brief: as §1

Avena fatua (AVEFA) = assay: Post-emergence herbicidal action against AVEFA; conditions: visual rating about 3 weeks after treatment
Method in brief: (§2)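 Greenhouse plants sprayed at the one-leaf stage, 2–3 weeks after sowing, with WP or EC formulations plus 0.5% additive at 600 l/ha water. Activity rated visually after about 3 weeks versus untreated controls (100% = dead, 0% = like control), at 320 g/ha or lower.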

[5] = tested on: Echinochloa crus-galli (ECHCG); assay: Post-emergence herbicidal action against ECHCG
Method in brief: as §2

Lolium rigidum (LOLRI) [6] = assay: Post-emergence herbicidal action against LOLRI
Method in brief: as §2

[7] = tested on: Matricaria inodora (MATIN); assay: Post-emergence herbicidal action against MATIN
Method in brief: as §2

Setaria viridis (SETVI) [8] = assay: Post-emergence herbicidal action against SETVI
Method in brief: as §2

Viola tricolor (VIOTR) = assay: Post-emergence herbicidal action against VIOTR
Method in brief: as §2

[9] = Dosage column 320 g/ha (title prints 3200 g/ha), scored visually after about 3 weeks
[10] = 80 g/ha, scored visually after about 3 weeks vs untreated controls, 0% = like control plants

Row | SMILES | Pre-emergence action against ABUTH [1, 9] | Pre-emergence action against LOLRI in % (Lolium rigidum (LOLRI) [2]; dosage 80 g/ha) | Pre-emergence action against LOLRI in % (Lolium rigidum (LOLRI) [2]; dosage 320 g/ha) | Pre-emergence action against MATIN in % ([3]; dosage 80 g/ha) | Pre-emergence action against MATIN in % ([3]; dosage 320 g/ha) | Pre-emergence action against SETVI in % (Setaria viridis (SETVI) [4]; dosage 80 g/ha) | Pre-emergence action against SETVI in % (Setaria viridis (SETVI) [4]; dosage 320 g/ha) | Post-emergence action against AVEFA in % (Avena fatua (AVEFA); 80 g/ha) | Post-emergence action against AVEFA in % (Avena fatua (AVEFA); 320 g/ha) | Post-emergence action against ECHCG in % ([5]; dosage 80 g/ha) | Post-emergence action against ECHCG in % ([5]; dosage 320 g/ha) | Post-emergence action against LOLRI in % (Lolium rigidum (LOLRI) [6]; dosage 80 g/ha) | Post-emergence action against LOLRI in % (Lolium rigidum (LOLRI) [6]; dosage 320 g/ha) | Post-emergence action against MATIN in % ([7]; dosage 320 g/ha) | Post-emergence action against SETVI in % (Setaria viridis (SETVI) [8]; dosage 80 g/ha) | Post-emergence action against SETVI in % (Setaria viridis (SETVI) [8]; dosage 320 g/ha) | Post-emergence action against VIOTR in % (Viola tricolor (VIOTR); 80 g/ha) | Post-emergence action against VIOTR in % (Viola tricolor (VIOTR); 320 g/ha) | Pre-emergence action against ABUTH [1, 10] | Post-emergence action against MATIN in % ([7]; dosage 80 g/ha)
1 | CCOC(=O)[C@@H](C)Oc1nn(-c2ncccc2F)c(-c2ccc(F)nc2)c1C1CC1 [Example I-375] | 100% | 100% | 100% | 100% | 100% | 90% | 100% | 90% | 90% | 90% | 90% | 90% | 90% | 80% | 90% | 90% | 80% | 90% | – | –
2 | COCCOC(=O)COc1nn(-c2ncccc2C)c(-c2cncc(F)c2)c1Br [Example I-212] | 80% | 80% | 90% | 80% | 90% | 100% | 100% | 80% | 90% | 90% | 90% | – | 80% | 80% | 80% | 80% | 80% | 80% | – | –
3 | CCOC(=O)[C@@H](C)Oc1nn(-c2ccccn2)c(-c2cncc(F)c2)c1Cl [Example I-184] | 90% | 100% | 100% | 90% | 90% | 100% | 100% | 80% | 90% | 90% | 90% | 90% | 90% | 80% | 80% | 90% | 80% | 90% | 90% | –
4 | COC(=O)C(C)COC(=O)[C@@H](C)Oc1nn(-c2ccccn2)c(-c2cncc(F)c2)c1Br (some centres unmarked) [Example I-188] | 90% | 100% | 100% | 90% | 90% | 100% | 100% | 80% | 80% | 80% | 90% | 90% | 90% | 80% | 80% | 80% | 80% | 80% | 80% | –
5 | O=C(O)COc1nn(-c2ncccc2F)c(-c2ccc(F)nc2)c1Br [Example I-08] | 80% | 80% | 100% | – | 100% | 90% | 100% | 80% | 90% | 80% | 90% | – | 90% | 90% | 80% | 90% | 80% | 80% | – | 90%
6 | COC(=O)COc1nn(-c2ncccc2F)c(-c2ccc(F)nc2)c1Br [Example I-07] | 90% | – | 100% | 80% | 100% | – | 100% | – | 90% | – | 90% | – | 90% | 100% | 90% | 90% | 90% | 90% | – | 90%
7 | C[C@@H](Oc1nn(-c2ccccn2)c(-c2cncc(F)c2)c1Cl)C(=O)O [Example I-218] | 90% | 100% | 100% | 90% | 100% | 90% | 100% | 80% | 90% | 80% | 90% | 80% | 90% | 80% | 80% | 80% | 80% | 80% | 80% | –
8 | COC(=O)COc1nn(-c2nc(F)ccc2F)c(-c2cncc(F)c2)c1C1CC1 [Example I-164] | 80% | 100% | 100% | 90% | 100% | 100% | 100% | 80% | 80% | 80% | 80% | 80% | 90% | 80% | 80% | 80% | – | 80% | – | –
